Reference: PMC11876601 (Molecular Systems Biology, 2025)
Values joined by “and” are separate entries in the source; they are usually repeats but may differ in a detail not shown here. Equal values may be shown once. Read-outs that look alike come from different tables or passages of the source.

Test system: AsPC-1 cells
Assay: Cell proliferation assay, chemodrug + ATR inhibitor (Incucyte confluence, 72 h);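 also: underlying read-out for every value is AsPC-1 confluence after 72 h incubation at 37 °C and 5% CO2, divided by that well's starting confluence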
Settings: for EC50: Homo sapiens; for Ratio: Response / Response vehicle (mean)
[1] = AsPC-1, Experiment GEM (no ATRi), single replicates R1-R3, listed as 5-FU
[2] = AsPC-1, Experiment GEM+ATRi_dose1, single replicates R1-R3, listed as 5-FU
[3] = AsPC-1, Experiment GEM+ATRi_dose2, single replicates R1-R3, listed as 5-FU
[4] = AsPC-1, Experiment GEM+ATRi_dose3, single replicates R1-R3, listed as 5-FU
[5] = Drug 0 nM + ATRi 3 nM (ATRi alone, GEM+ATRi_dose1 series), replicates R1-R3, listed as 5-FU
[6] = Drug 0 nM + ATRi 10 nM (ATRi alone, GEM+ATRi_dose2 series), replicates R1-R3, listed as 5-FU
[7] = Drug 0 nM + ATRi 30 nM (ATRi alone, GEM+ATRi_dose3 series), replicates R1-R3, listed as 5-FU
[8] = Drug 1 nM + ATRi 3 nM (GEM+ATRi_dose1), replicates R1-R3, listed as 5-FU
[9] = Drug 1 nM + ATRi 10 nM (GEM+ATRi_dose2), replicates R1-R3, listed as 5-FU
[10] = Drug 1 nM + ATRi 30 nM (GEM+ATRi_dose3), replicates R1-R3, listed as 5-FU
[11] = Drug 3 nM + ATRi 3 nM (GEM+ATRi_dose1), replicates R1-R3, listed as 5-FU
[12] = Drug 3 nM + ATRi 30 nM (GEM+ATRi_dose3), replicates R1-R3, listed as 5-FU
[13] = Drug 3 nM alone, ATRi 0 nM (experiment 'GEM'), replicates R1-R3, listed as 5-FU
[14] = Drug 10 nM + ATRi 3 nM (GEM+ATRi_dose1), replicates R1-R3, listed as 5-FU
[15] = Drug 10 nM + ATRi 10 nM (GEM+ATRi_dose2), replicates R1-R3, listed as 5-FU
[16] = Drug 10 nM + ATRi 30 nM (GEM+ATRi_dose3), replicates R1-R3, listed as 5-FU
[17] = Drug 10 nM alone, ATRi 0 nM (experiment 'GEM'), replicates R1-R3, listed as 5-FU
[18] = Drug 30 nM + ATRi 3 nM (GEM+ATRi_dose1), replicates R1-R3, listed as 5-FU
[19] = Drug 30 nM + ATRi 10 nM (GEM+ATRi_dose2), replicates R1-R3, listed as 5-FU
[20] = Drug 30 nM + ATRi 30 nM (GEM+ATRi_dose3), replicates R1-R3, listed as 5-FU
[21] = Drug 100 nM + ATRi 3 nM (GEM+ATRi_dose1), replicates R1-R3
[22] = Drug 100 nM + ATRi 10 nM (GEM+ATRi_dose2), replicates R1-R3, listed as 5-FU
[23] = Drug 100 nM + ATRi 30 nM (GEM+ATRi_dose3), replicates R1-R3, listed as 5-FU
[24] = Drug 100 nM alone, ATRi 0 nM (experiment 'GEM'), replicates R1-R3, listed as 5-FU
[25] = Drug 300 nM + ATRi 3 nM (GEM+ATRi_dose1), replicates R1-R3
[26] = Drug 300 nM + ATRi 10 nM (GEM+ATRi_dose2), replicates R1-R3, listed as 5-FU
[27] = Drug 300 nM + ATRi 30 nM (GEM+ATRi_dose3), replicates R1-R3, listed as 5-FU
[28] = Drug 300 nM alone, ATRi 0 nM (experiment 'GEM'), replicates R1-R3, listed as 5-FU
[29] = Drug 1000 nM + ATRi 3 nM (GEM+ATRi_dose1), replicates R1-R3
[30] = Drug 1000 nM + ATRi 30 nM (GEM+ATRi_dose3), replicates R1-R3, listed as 5-FU
[31] = Drug 1000 nM alone, ATRi 0 nM (experiment 'GEM'), replicates R1-R3, listed as 5-FU
[32] = Drug 3000 nM + ATRi 3 nM (GEM+ATRi_dose1), replicates R1-R3
[33] = Drug 3000 nM + ATRi 10 nM (GEM+ATRi_dose2), replicates R1-R3, listed as 5-FU
[34] = Drug 3000 nM + ATRi 30 nM (GEM+ATRi_dose3), replicates R1-R3, listed as 5-FU
[35] = Drug 3000 nM alone, ATRi 0 nM (experiment 'GEM'), replicates R1-R3, listed as 5-FU
[36] = drug 100 nM + ATRi 3 nM, listed as 5-FU
[37] = drug 300 nM + ATRi 3 nM, listed as 5-FU
[38] = drug 1000 nM + ATRi 3 nM, listed as 5-FU
[39] = drug 3000 nM + ATRi 3 nM, listed as 5-FU

Protocol: Cells were seeded at 5000 cells/well into 96-well flat bottom plates (Eppendorf) and allowed to attach overnight. […] Cells were incubated for 72 h at 37 °C and 5% CO2. Cell confluence readouts at 72 h were either normalized to their initial confluence using the Incucyte software (AsPC-1) or used without prior normalization (all others). […] Each experiment was performed in triplicates, the data was plotted as mean ± standard deviation (s.d.).

O=c1[nH]cc(F)c(=O)[nH]1 [5-fluorouracil]
Curve bottom [1]: 1.02 and 1.01 and 1.04
Curve slope [1]: 1.53 and 1.20 and 1.02
Curve top [1]: 0.52 and 0.45 and 0.53
Curve bottom [2]: 1.03 and 1.04
Curve slope [2]: 1.17 and 1.72 and 2.53
Curve top [2]: 0.34 and 0.38 and 0.50
Curve bottom (AsPC-1, Experiment GEM+ATRi_dose2, single replicates R1-R3): 1.02
Curve slope [3]: 2.12 and 2.47 and 2.30
Curve top [3]: 0.44 and 0.42 and 0.41
Curve bottom [4]: 0.92 and 0.93 and 0.96
Curve slope [4]: 7.78 and 7.99 and 4.74
Curve top [4]: 0.42 and 0.41
Response [5]: 93.23 and 93.25
Response [6]: 93.23 and 93.25
Response [7]: 86.00 and 86.93
Response [8]: 93.84 and 90.46
Response [9]: 92.14 and 89.28
Response [10]: 85.34 and 86.33
Response (Drug 1 nM alone, ATRi 0 nM (experiment 'GEM'), replicates R1-R3, listed as 5-FU): 94.45
Response [11]: 93.43 and 94.40
Response (Drug 3 nM + ATRi 10 nM (GEM+ATRi_dose2), replicates R1-R3, listed as 5-FU): 92.25 and 90.36
Response [12]: 84.22 and 84.05
Response [13]: 90.32
Response [14]: 92.50 and 91.39
Response [15]: 91.53 and 89.96
Response [16]: 83.67 and 82.94
Response [17]: 89.98 and 90.52
Response [18]: 93.40 and 92.15
Response [19]: 91.74 and 91.80
Response [20]: 86.01 and 86.29
Response (Drug 30 nM alone, ATRi 0 nM (experiment 'GEM'), replicates R1-R3, listed as 5-FU): 91.55 and 89.05
Response [21]: 92.03
Response [22]: 90.88 and 90.27
Response [23]: 85.31 and 85.49
Response [24]: 92.05 and 91.30
Response [25]: 79.74
Response [26]: 62.48 and 67.47
Response [27]: 51.19 and 52.50
Response [28]: 82.78 and 83.05
Response [29]: 50.06
Response (Drug 1000 nM + ATRi 10 nM (GEM+ATRi_dose2), replicates R1-R3, listed as 5-FU): 44.01 and 42.89
Response [30]: 38.74 and 41.39
Response [31]: 71.08 and 72.31
Response [32]: 44.54
Response [33]: 35.64 and 36.17
Response [34]: 35.72 and 32.91
Response [35]: 54.65 and 60.00
EC50 (ASPC1, 72 h, AsPC-1, Experiment GEM (no ATRi), single replicates R1-R3): 1020 nM
EC50 (ASPC1, 72 h, read-out: EC50 mean [nM], AsPC-1, Experiment GEM (no ATRi), mean of R1-R3, repeated in each replicate line): 1190 nM
EC50 (ASPC1, 72 h, read-out: pEC50, AsPC-1 (converted), Experiment GEM (no ATRi), single replicates R1-R3): 1020 nM
EC50 (ASPC1, read-out: EC50 mean [nM], AsPC-1, Experiment GEM (no ATRi), mean of R1-R3, repeated in each replicate line): 1190 nM
EC50 (ASPC1, read-out: EC50 mean [nM], AsPC-1, Experiment GEM+ATRi_dose1, mean of R1-R3, repeated in each replicate line): 619 nM
EC50 (ASPC1, read-out: EC50 mean [nM], AsPC-1, Experiment GEM+ATRi_dose2, mean of R1-R3, repeated in each replicate line): 326 nM
EC50 (ASPC1, read-out: EC50 mean [nM], AsPC-1, Experiment GEM+ATRi_dose3, mean of R1-R3, repeated in each replicate line): 266 nM
Ratio [5]: 1.02 and 1.04
Ratio [6]: 1.02 and 1.04
Ratio [7]: 0.94 and 0.97
Ratio [8]: 1.03 and 1.01
Ratio [9]: 1.01 and 1.00
Ratio [10]: 0.94 and 0.97
Ratio (Drug 1 nM alone, ATRi 0 nM (experiment 'GEM'), replicates R1-R3): 1.04
Ratio [11]: 1.03 and 1.06
Ratio (Drug 3 nM + ATRi 10 nM (GEM+ATRi_dose2), replicates R1-R3): 1.01
Ratio [12]: 0.92 and 0.94
Ratio [13]: 0.99 and 1.05
Ratio [14]: 1.01 and 1.02
Ratio [15]: 1.00 and 1.01
Ratio [16]: 0.92 and 0.93
Ratio [17]: 0.99 and 1.01
Ratio [18]: 1.02 and 1.03
Ratio [19]: 1.01 and 1.03
Ratio [20]: 0.94 and 0.97
Ratio (Drug 30 nM alone, ATRi 0 nM (experiment 'GEM'), replicates R1-R3): 1.00
Ratio [21]: 1.03
Ratio [22]: 1.00 and 1.01
Ratio [23]: 0.94 and 0.96
Ratio [24]: 1.01 and 1.02
Ratio [25]: 0.89
Ratio [26]: 0.69 and 0.76
Ratio [27]: 0.56 and 0.59
Ratio [28]: 0.91 and 0.93
Ratio [29]: 0.56
Ratio (Drug 1000 nM + ATRi 10 nM (GEM+ATRi_dose2), replicates R1-R3): 0.48
Ratio [30]: 0.43 and 0.46
Ratio [31]: 0.78 and 0.81
Ratio [32]: 0.50
Ratio [33]: 0.39 and 0.41
Ratio [34]: 0.39 and 0.37
Ratio [35]: 0.60 and 0.67
Ratio (drug 1 nM + ATRi 3 nM): 1.05
Ratio (drug 1 nM + ATRi 10 nM): 1.03
Ratio (drug 1 nM + ATRi 30 nM): 0.93
Ratio (drug 1 nM alone (ATRi 0 nM)): 1.02
Ratio (drug 3 nM + ATRi 3 nM): 1.01
Ratio (drug 3 nM + ATRi 10 nM): 0.98
Ratio (drug 3 nM + ATRi 30 nM): 0.92
Ratio (drug 3 nM alone (ATRi 0 nM)): 1.00
Ratio (drug 10 nM + ATRi 3 nM): 1.01
Ratio (drug 10 nM + ATRi 10 nM): 1.01
Ratio (drug 10 nM + ATRi 30 nM): 0.91
Ratio (drug 10 nM alone (ATRi 0 nM)): 1.02
Ratio (drug 30 nM + ATRi 3 nM): 1.02
Ratio (drug 30 nM + ATRi 10 nM): 1.00
Ratio (drug 30 nM + ATRi 30 nM): 0.94
Ratio (drug 30 nM alone (ATRi 0 nM)): 1.02
Ratio [36]: 1.02 and 1.04
Ratio (drug 100 nM + ATRi 10 nM): 1.01
Ratio (drug 100 nM + ATRi 30 nM): 0.92
Ratio (drug 100 nM alone (ATRi 0 nM)): 1.03
Ratio [37]: 0.84 and 0.85
Ratio (drug 300 nM + ATRi 10 nM): 0.76
Ratio (drug 300 nM + ATRi 30 nM): 0.58
Ratio (drug 300 nM alone (ATRi 0 nM)): 0.95
Ratio [38]: 0.66 and 0.57
Ratio (drug 1000 nM + ATRi 10 nM): 0.52
Ratio (drug 1000 nM + ATRi 30 nM): 0.43
Ratio (drug 1000 nM alone (ATRi 0 nM)): 0.78
Ratio [39]: 0.46 and 0.41
Ratio (drug 3000 nM + ATRi 10 nM): 0.43
Ratio (drug 3000 nM + ATRi 30 nM): 0.42
Ratio (drug 3000 nM alone (ATRi 0 nM)): 0.60
sensitization of AsPC-1 cells to the chemodrug by Elimusertib (chemodrug + three sub-EC50 doses of Elimusertib): sensitized
Response (drug 1 nM + ATRi 3 nM): 97.06
Response (drug 1 nM + ATRi 10 nM): 94.90
Response (drug 1 nM + ATRi 30 nM): 85.74
Response (drug 1 nM alone (ATRi 0 nM)): 94.29
Response (drug 3 nM + ATRi 3 nM): 93.28
Response (drug 3 nM + ATRi 10 nM): 90.39
Response (drug 3 nM + ATRi 30 nM): 84.88
Response (drug 3 nM alone (ATRi 0 nM)): 92.53
Response (drug 10 nM + ATRi 3 nM): 93.05
Response (drug 10 nM + ATRi 10 nM): 92.81
Response (drug 10 nM + ATRi 30 nM): 83.72
Response (drug 10 nM alone (ATRi 0 nM)): 93.59
Response (drug 30 nM + ATRi 3 nM): 93.52
Response (drug 30 nM + ATRi 10 nM): 91.78
Response (drug 30 nM + ATRi 30 nM): 86.53
Response (drug 30 nM alone (ATRi 0 nM)): 94.07
Response [36]: 94.22 and 94.47
Response (drug 100 nM + ATRi 10 nM): 93.45
Response (drug 100 nM + ATRi 30 nM): 85.12
Response (drug 100 nM alone (ATRi 0 nM)): 94.67
Response [37]: 77.35 and 77.27
Response (drug 300 nM + ATRi 10 nM): 69.87
Response (drug 300 nM + ATRi 30 nM): 53.83
Response (drug 300 nM alone (ATRi 0 nM)): 87.11
Response [38]: 61.14 and 51.57
Response (drug 1000 nM + ATRi 10 nM): 47.87
Response (drug 1000 nM + ATRi 30 nM): 39.31
Response (drug 1000 nM alone (ATRi 0 nM)): 71.77
Response [39]: 42.27 and 37.14
Response (drug 3000 nM + ATRi 10 nM): 39.36
Response (drug 3000 nM + ATRi 30 nM): 38.38
Response (drug 3000 nM alone (ATRi 0 nM)): 55.50
